# Residue numbers refer to the chain shown, from its start.
# How the values were obtained:
# Type in all cases: cell-based
# [1] = target: T1, rP2 × 4R (Rattus norvegicus, UniProt P51577); experiment: ATP concentration–response curves, two-electrode voltage clamp in oocytes expressing wild type rP2 × 4R
# T1 construct: host or cells: Xenopus laevis oocytes (intranuclear plasmid injection, pcDNA3)
# T1 sequence (P51577 1-388): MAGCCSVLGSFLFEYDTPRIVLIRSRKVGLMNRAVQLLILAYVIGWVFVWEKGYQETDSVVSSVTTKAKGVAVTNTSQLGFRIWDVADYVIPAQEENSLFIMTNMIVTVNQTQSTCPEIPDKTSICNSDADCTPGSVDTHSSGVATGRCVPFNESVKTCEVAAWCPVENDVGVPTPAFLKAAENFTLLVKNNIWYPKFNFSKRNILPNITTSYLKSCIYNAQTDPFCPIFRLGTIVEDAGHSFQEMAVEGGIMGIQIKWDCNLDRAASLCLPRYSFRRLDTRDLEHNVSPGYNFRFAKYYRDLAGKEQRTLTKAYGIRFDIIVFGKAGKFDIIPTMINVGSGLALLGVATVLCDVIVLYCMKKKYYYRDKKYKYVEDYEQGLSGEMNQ
# [2] = target: T2, rP2 × 4R E160Q mutant (Rattus norvegicus, UniProt P51577, E160Q); experiment: ATP concentration–response curves, voltage clamp, E160Q mutant; conditions: for EC50: ATP EC50, E160Q
# T2 construct: host or cells: Xenopus laevis oocytes
# T2 sequence (P51577 1-388 E160Q): T1 sequence (P51577 1-388) with E160Q
# [3] = target: T3, rP2 × 4R C126A/C149A mutant (Rattus norvegicus, UniProt P51577, C126A/C149A); experiment: ATP concentration–response curves, voltage clamp, C126A/C149A double mutant; conditions: for EC50: ATP EC50, C126A/C149A
# T3 construct: host or cells: Xenopus laevis oocytes
# T3 sequence (P51577 1-388 C126A/C149A): T1 sequence (P51577 1-388) with C126A, C149A
# [4] = target: T4, rP2 × 4R C159T mutant (Rattus norvegicus, UniProt P51577, C159T); experiment: ATP concentration–response curves, voltage clamp, C159T mutant; conditions: for EC50: ATP EC50, C159T
# T4 construct: expressed in transfected cells; host or cells: Xenopus laevis oocytes
# T4 sequence (P51577 1-388 C159T): T1 sequence (P51577 1-388) with C159T
# [5] = target: T5, rP2 × 4R C132A mutant (Rattus norvegicus, UniProt P51577, C132A); experiment: ATP concentration–response curves, voltage clamp, C132A mutant; conditions: for EC50: ATP EC50, C132A
# T5 construct: expressed in transfected cells; host or cells: Xenopus laevis oocytes
# T5 sequence (P51577 1-388 C132A): T1 sequence (P51577 1-388) with C132A
# [6] = target: T6, rP2 × 4R D170N mutant (Rattus norvegicus, UniProt P51577, D170N); experiment: ATP concentration–response curves, voltage clamp, D170N mutant; conditions: for EC50: ATP EC50, D170N
# T6 construct: host or cells: Xenopus laevis oocytes
# T6 sequence (P51577 1-388 D170N): T1 sequence (P51577 1-388) with D170N
structure (smiles),measurement,setting,value
"Nc1ncnc2c1ncn2[C@@H]1O[C@H](COP(=O)(O)OP(=O)(O)OP(=O)(O)O)[C@@H](O)[C@H]1O [ATP, adenosine triphosphate]",EC50,"[1]; ATP EC50, NEM treatment + Zn(II) group, control before treatment (first ATP curve)",24.5 ± 9.1 µM
same,EC50,"[1]; ATP EC50, NEM treatment + vehicle group, control before treatment (first ATP curve)",23 ± 8.3 µM
same,EC50,"[1]; ATP EC50, P2 × 4 WT, control",27.5 ± 10.6 µM
same,EC50,"[1]; ATP EC50, after 300 µM DTNB + 10 µM Zn(II) treatment and washout, Figure S3",79.8 ± 64.4 µM
same,EC50,"[1]; ATP EC50, after 300 µM NEM + 10 µM Zn(II) treatment, control = ATP curve after treatment",44.9 ± 17.7 µM
same,EC50,"[1]; ATP EC50, after 300 µM NEM + vehicle treatment, control = ATP curve after treatment",23.8 ± 7 µM
same,EC50,"[1]; ATP EC50, control of the DTNB + Zn(II) experiment, Figure S3",50.3 ± 16 µM
same,EC50,"[1]; ATP EC50, vehicle-treated oocytes (Barth's buffer), Figure 1A, without Zn(II)",35.3 ± 6.6 µM
same,Imax,"[1]; after 300 µM NEM + 10 µM Zn(II) treatment, ATP curve in presence of 10 µM Zn(II)",9.3 ± 2.2 µA
same,EC50,[2]; +10 µM Zn(II),25.9 ± 7.1 µM
same,EC50,[2]; control,23.8 ± 10.1 µM
same,EC50,[3]; +10 µM Zn(II),10.1 ± 4.1 µM
same,EC50,[3]; control,22.9 ± 6.7 µM
same,EC50,[4]; +10 µM Zn(II),7 ± 2 µM
same,EC50,[4]; control,37.3 ± 8.8 µM
same,EC50,[5]; +10 µM Zn(II),19.9 ± 13.4 µM
same,EC50,[5]; control,10.2 ± 3.8 µM
same,EC50,[6]; +10 µM Zn(II),12.8 ± 8.1 µM
same,EC50,[6]; control,19.3 ± 10.5 µM
"[Cl-].[Cl-].[Zn+2] [Zn(II), zinc chloride (ZnCl2)]",fold reduction of ATP EC50 by Zn(II),"[1]; 10 µM Zn(II), vehicle-treated oocytes",3.82 fold
same,fold leftward shift of ATP EC50 by Zn(II),"[1]; WT, matched paired control oocytes, 10 µM Zn(II)",3.45 fold
same,Zn(II) modulation of the mutant,"[2]; E160Q, 10 µM Zn(II)",resistant to Zn(II) modulation
same,fold decrease in ATP EC50 by Zn(II),"[3]; C126A/C149A, 10 µM Zn(II)",2.26 fold
same,fold ATP EC50 reduction by Zn(II),"[4]; C159T, 10 µM Zn(II)",5.32 fold
same,Zn(II) modulation of the mutant,"[5]; C132A, 10 µM Zn(II)",resistant to Zn(II) modulation
same,EC50 ratio in the metal presence,"[6]; D170N, 10 µM Zn(II)",1.5
